# Source: patent US5665769A, “Pharmaceutical composition for preventing and treating retinal diseases” (Senju Pharmaceuticals Co., Ltd., priority 1993, dated 1997)
# Tested on: bovine retinal homogenate
# Assay: Ferrous chloride-induced peroxidation of bovine retinal homogenate in vitro, TBA value (Experiment 1 (A))
# Format: biochemical
# Settings: 10^-4 M
# Procedure: (A) In vitro experiment using a bovine retinal homogenate:
# Effects of 2-O-octadecylascorbic acid on the peroxidation induced by adding ferrous chloride to a bovine retinal homogenate were examined.
# (1) Retinae were removed from bovine eyeballs (1/2 eye). Physiological saline was added to the retinae to prepare bovine retinal homogenates.
# (2) Ferrous chloride (0.5 mM, dissolved in distilled water) was added to each of the retinal homogenates obtained in the above. Further, 2-O-octadecylascorbic acid and α-tocopherol were added to the resulting homogenates to final concentrations of the reaction mixtures of 10^-4 M, respectively. Further, distilled water was added to each of the homogenates to adjust a total volume to 1 ml. 2-O-octadecylascorbic acid and α-tocopherol were dissolved and diluted with ethanol. Thus, the final concentrations of ethanol in all of the reaction mixtures were adjusted to 1%. Then, the mixtures were subjected to reaction at 37° C. for 1 hour.
# (3) 0.35% thiobarbituric acid (hereinafter referred to as TBA) reagent (50% aqueous acetic acid solution)(1 ml) was added to the reaction mixtures or standard solutions of the retinal homogenates obtained in the above (2). The mixtures were subjected to reaction in boiling water at 100° C. for 1 hour. After water cooling, n-butanol (2 ml) was added, and the mixtures were shaken for 5 minutes and centrifuged at 3000 rpm for 10 minutes. Fluorescence intensities (excitation wave length: 515 nm, emission wave length: 553 nm) were determined for the n-butanol layer. Proteins were determined using Bio-Rad Protein Assay Kit (trade name).
structure (smiles),measurement,setting,value
"Cc1c(C)c2c(c(C)c1O)CCC(C)(CCCC(C)CCCC(C)CCCC(C)C)O2 (stereo not drawn) [α-Tocopherol, α-tocopherol, reference compound]",Retina: TBA value,"0.5 mM ferrous chloride, 37° C., 1 hour, mean ± S.D., n=3, p < 0.001 vs control",2.38 ± 0.12 nM malondialdehyde/mg protein
same,Inhibitory ratio,"ferrous chloride control = 0, blank = 100, 60 min",61.6%
